In the supplement of paper PMC10627819:

Experiments:
Assay in all cases: fitness (endpoint OD595 vs no drug) (fraction); higher = more growth
[1] = tested on: S. aureus DSM 20231
Procedure, shortened: (§1)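 Fitness expresses the optical density reached at the stationary-phase transition as a fraction of the robust mean of no-drug control wells. It is capped at 1. Measurements were OD595 every 30 min for 14 h at 37 °C after inoculation of 384-well plates at OD595 0.01 (30 µl, or 55 µl for S. pneumoniae), minus the first reading.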

[2] = tested on: B. subtilis 168
Procedure, shortened: as §1

[3] = tested on: S. pneumoniae D39V
Procedure, shortened: as §1

[4] = tested on: S. aureus Newman
Procedure, shortened: as §1
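Also: OD595 on entry to stationary phase over no-drug wells; at most 1.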

CN(C)[C@@H]1C(O)=C(C(N)=O)C(=O)[C@@]2(O)C(O)=C3C(=O)c4c(O)ccc(Cl)c4[C@@](C)(O)[C@H]3C[C@@H]12 [Chlortetracycline] + Cc1cc(NS(=O)(=O)c2ccc(N)cc2)no1 [Sulfamethoxazol]
fitness, one replicate
Settings | partner 0.5 µg/mL | partner 1 µg/mL | partner 2 µg/mL | partner 4 µg/mL
[1], first compound 0.006 µg/mL | – | 0.724 | 0.733 | 0.761
[2], first compound 0.0475 µg/mL | 0.905 | – | – | –
[2], first compound 0.095 µg/mL | 0.837 | – | – | –
[2], first compound 0.19 µg/mL | 0.449 | – | – | –
[3], first compound 0.012 µg/mL | – | 0.929 | 0.951 | 0.865
[3], first compound 0.024 µg/mL | – | 0.851 | 0.88 | 0.806
[3], first compound 0.048 µg/mL | – | 0.793 | 0.797 | 0.743

fitness
Settings | partner 1 µg/mL | partner 2 µg/mL | partner 4 µg/mL
[1], first compound 0.012 µg/mL | 0.509 | 0.533 | 0.573
[1], first compound 0.024 µg/mL | 0.256 | 0.234 | 0.264
[1], first compound 0.048 µg/mL | 0.0878 | 0.0579 | 0.059
[2], first compound 0.0475 µg/mL | 0.9 | 0.852 | 0.907
[2], first compound 0.095 µg/mL | 0.78 | 0.725 | 0.779
[2], first compound 0.19 µg/mL | 0.548 | 0.527 | 0.5
[3], first compound 0.375 µg/mL | 0.0312 | 0.0347 | 0.0394
[3], first compound 0.75 µg/mL | 0.0329 | 0.0284 | 0.0259
[3], first compound 1.5 µg/mL | 0.0307 | 0.0374 | 0.0403

CO/N=C(\C(=O)N[C@@H]1C(=O)N2C(C(=O)O)=C(COC(C)=O)CS[C@H]12)c1csc(N)n1 [Cefotaxime] + CO/N=C(\C(=O)N[C@@H]1C(=O)N2C(C(=O)[O-])=C(C[N+]3(C)CCCC3)CS[C@H]12)c1csc(N)n1 [Cefepime]
Settings | fitness
[1], first compound 0.039 µg/mL, partner 0.125 µg/mL | 0.782
[1], first compound 0.039 µg/mL, partner 0.25 µg/mL | 0.847
[1], first compound 0.039 µg/mL, partner 0.5 µg/mL | 0.824
[1], first compound 0.078 µg/mL, partner 0.125 µg/mL | 0.754
[1], first compound 0.078 µg/mL, partner 0.25 µg/mL | 0.8
[1], first compound 0.078 µg/mL, partner 0.5 µg/mL | 0.772
[1], first compound 0.156 µg/mL, partner 0.125 µg/mL | 0.686
[1], first compound 0.156 µg/mL, partner 0.25 µg/mL | 0.73
[1], first compound 0.156 µg/mL, partner 0.5 µg/mL | 0.753
[1], first compound 0.312 µg/mL, partner 0.125 µg/mL | 0.664
[1], first compound 0.312 µg/mL, partner 0.25 µg/mL | 0.661
[1], first compound 0.312 µg/mL, partner 0.5 µg/mL | 0.71
[3], first compound 0.0018 µg/mL, partner 0.007 µg/mL | ≥ 1
[3], first compound 0.0018 µg/mL, partner 0.0078 µg/mL | ≥ 1
[3], first compound 0.0018 µg/mL, partner 0.014 µg/mL | ≥ 1
[3], first compound 0.0018 µg/mL, partner 0.0155 µg/mL | ≥ 1
[3], first compound 0.0018 µg/mL, partner 0.028 µg/mL | 0.93
[3], first compound 0.0018 µg/mL, partner 0.031 µg/mL | 0.926
[3], first compound 0.0035 µg/mL, partner 0.007 µg/mL | 0.983
[3], first compound 0.0035 µg/mL, partner 0.0078 µg/mL | 0.998
[3], first compound 0.0035 µg/mL, partner 0.014 µg/mL | 0.994
[3], first compound 0.0035 µg/mL, partner 0.0155 µg/mL | 0.996
[3], first compound 0.0035 µg/mL, partner 0.028 µg/mL | 0.8
[3], first compound 0.0035 µg/mL, partner 0.031 µg/mL | 0.89
[3], first compound 0.007 µg/mL, partner 0.007 µg/mL | 0.94
[3], first compound 0.007 µg/mL, partner 0.0078 µg/mL | 0.921
[3], first compound 0.007 µg/mL, partner 0.014 µg/mL | 0.96
[3], first compound 0.007 µg/mL, partner 0.0155 µg/mL | 0.891
[3], first compound 0.007 µg/mL, partner 0.028 µg/mL | 0.629
[3], first compound 0.007 µg/mL, partner 0.031 µg/mL | 0.553
[4], first compound 0.078 µg/mL, partner 0.125 µg/mL | 0.75
[4], first compound 0.078 µg/mL, partner 0.25 µg/mL | 0.695
[4], first compound 0.078 µg/mL, partner 0.5 µg/mL | 0.696
[4], first compound 0.156 µg/mL, partner 0.125 µg/mL | 0.618
[4], first compound 0.156 µg/mL, partner 0.25 µg/mL | 0.577
[4], first compound 0.156 µg/mL, partner 0.5 µg/mL | 0.519
[4], first compound 0.312 µg/mL, partner 0.125 µg/mL | 0.469
[4], first compound 0.312 µg/mL, partner 0.25 µg/mL | 0.415
[4], first compound 0.312 µg/mL, partner 0.5 µg/mL | 0.36
[4], first compound 0.625 µg/mL, partner 0.125 µg/mL | 0.206
[4], first compound 0.625 µg/mL, partner 0.25 µg/mL | 0.178
[4], first compound 0.625 µg/mL, partner 0.5 µg/mL | 0.0892
[4], first compound 1.25 µg/mL, partner 0.125 µg/mL | 0.125
[4], first compound 1.25 µg/mL, partner 0.25 µg/mL | 0.0934
[4], first compound 1.25 µg/mL, partner 0.5 µg/mL | 0.049
[4], first compound 2.5 µg/mL, partner 0.125 µg/mL | 0.0454
[4], first compound 2.5 µg/mL, partner 0.25 µg/mL | 0.0501
[4], first compound 2.5 µg/mL, partner 0.5 µg/mL | 0.0407

CN(C)[C@@H]1C(O)=C(C(N)=O)C(=O)[C@@]2(O)C(O)=C3C(=O)c4c(O)ccc(Cl)c4[C@@](C)(O)[C@H]3C[C@@H]12 [Chlortetracycline] + CN[C@@H]1[C@H](O)[C@H](NC)[C@H]2O[C@@]3(O)C(=O)C[C@@H](C)O[C@H]3O[C@@H]2[C@H]1O [Spectinomycin]
fitness, one replicate
Settings | first compound 0.006 µg/mL | first compound 0.012 µg/mL | first compound 0.024 µg/mL | first compound 0.048 µg/mL
[1], partner 4 µg/mL | 0.669 | – | – | –
[1], partner 8 µg/mL | 0.707 | – | – | –
[1], partner 16 µg/mL | 0.655 | – | – | –
[1], partner 32 µg/mL | – | 0.298 | 0.058 | 0.0249
[1], partner 64 µg/mL | – | 0.0229 | 0.0093 | 0.0056
[3], partner 4 µg/mL | – | 0.901 | 0.859 | 0.795
[3], partner 8 µg/mL | – | 0.853 | 0.859 | 0.78

fitness
Settings | partner 2 µg/mL | partner 4 µg/mL | partner 8 µg/mL | partner 16 µg/mL
[1], first compound 0.012 µg/mL | – | 0.529 | – | 0.494
[1], first compound 0.024 µg/mL | – | 0.203 | – | –
[1], first compound 0.048 µg/mL | – | 0.137 | 0.0943 | 0.05
[2], first compound 0.0475 µg/mL | 0.885 | 0.884 | 0.752 | –
[2], first compound 0.095 µg/mL | 0.803 | 0.806 | 0.691 | –
[2], first compound 0.19 µg/mL | 0.523 | 0.409 | 0.199 | –
[3], first compound 0.375 µg/mL | – | 0.0802 | 0.0586 | 0.0693
[3], first compound 0.75 µg/mL | – | 0.0886 | 0.0941 | 0.0722
[3], first compound 1.5 µg/mL | – | 0.0871 | 0.0754 | 0.0779

C[C@@H]1O[C@@H]1P(=O)(O)O [Fosfomycin] + CO[C@@]12[C@H](COC(N)=O)C3=C(C(=O)C(C)=C(N)C3=O)N1C[C@@H]1N[C@@H]12 [Mitomycin C]
fitness
Settings | first compound 0.781 µg/mL | first compound 1.25 µg/mL | first compound 1.562 µg/mL | first compound 2.5 µg/mL | first compound 3.124 µg/mL | first compound 5 µg/mL
[1], partner 0.0156 µg/mL | 0.607 | – | 0.494 | – | 0.43 | –
[1], partner 0.0312 µg/mL | 0.57 | – | 0.497 | – | 0.318 | –
[1], partner 0.0625 µg/mL | 0.49 | – | 0.35 | – | 0.165 | –
[3], partner 0.001075 µg/mL | – | 0.903 | – | 0.869 | – | 0.772
[3], partner 0.002 µg/mL | – | 0.858 | – | 0.812 | – | 0.694
[3], partner 0.00215 µg/mL | – | 0.843 | – | 0.837 | – | 0.733
[3], partner 0.004 µg/mL | – | 0.793 | – | 0.77 | – | 0.617
[3], partner 0.0043 µg/mL | – | 0.748 | – | 0.734 | – | 0.652
[3], partner 0.008 µg/mL | – | 0.65 | – | 0.648 | – | 0.574
[4], partner 0.0156 µg/mL | 0.576 | – | 0.452 | – | 0.124 | –
[4], partner 0.0312 µg/mL | 0.543 | – | 0.363 | – | 0.0839 | –
[4], partner 0.0625 µg/mL | 0.373 | – | 0.114 | – | 0.0142 | –

CN(C)[C@@H]1C(O)=C(C(N)=O)C(=O)[C@@]2(O)C(O)=C3C(=O)c4c(O)ccc(Cl)c4[C@@](C)(O)[C@H]3C[C@@H]12 [Chlortetracycline] + C[n+]1ccc(-c2cc[n+](C)cc2)cc1 [Paraquat]
fitness, one replicate
Settings | partner 1.25 µg/mL | partner 1.5 µg/mL | partner 2.5 µg/mL | partner 3 µg/mL | partner 5 µg/mL | partner 6 µg/mL
[1], first compound 0.006 µg/mL | 0.72 | – | 0.718 | – | 0.704 | –
[3], first compound 0.012 µg/mL | – | 0.976 | – | ≥ 1 | – | ≥ 1
[3], first compound 0.024 µg/mL | – | 0.941 | – | 0.95 | – | 0.987
[3], first compound 0.048 µg/mL | – | 0.852 | – | 0.868 | – | 0.875

fitness
Settings | partner 1.25 µg/mL | partner 1.5 µg/mL | partner 2.5 µg/mL | partner 3 µg/mL | partner 5 µg/mL | partner 6 µg/mL
[1], first compound 0.012 µg/mL | 0.568 | – | 0.597 | – | 0.574 | –
[1], first compound 0.024 µg/mL | 0.266 | – | 0.294 | – | 0.261 | –
[1], first compound 0.048 µg/mL | 0.0591 | – | 0.169 | – | 0.0904 | –
[2], first compound 0.0475 µg/mL | 0.92 | – | 0.877 | – | 0.839 | –
[2], first compound 0.095 µg/mL | 0.805 | – | 0.748 | – | 0.715 | –
[2], first compound 0.19 µg/mL | 0.609 | – | 0.524 | – | 0.429 | –
[3], first compound 0.375 µg/mL | – | 0.073 | – | 0.0531 | – | 0.0597
[3], first compound 0.75 µg/mL | – | 0.055 | – | 0.0649 | – | 0.0514
[3], first compound 1.5 µg/mL | – | 0.048 | – | 0.0551 | – | 0.0491
